The text below walks through data of ChEMBL document CHEMBL1811905, “Ligand-based discovery of novel trypanosomicidal drug-like compounds: in silico identification and experimental support” (Eur J Med Chem, 2011).

In data set [1] the test system is Trypanosoma cruzi. The experiment in a line: Antitrypanosomal activity against epimastigote forms of Trypanosoma cruzi CL-B5 transfected with Escherichia coli LacZ gene at 100 ug/ml after 72 hrs by chlorophenol red-Beta-D-galactopyranoside-based assay. The class given is functional.
Data set [2] deals with Trypanosoma cruzi. Kind of data set: Antitrypanosomal activity against epimastigote forms of Trypanosoma cruzi CL-B5 transfected with Escherichia coli beta-galactosidase gene LacZ at 10 ug/ml after 72 hrs by chlorophenol red-Beta-D-galactopyranoside-based assay. The class given is functional.
Data set [3] has as its system Trypanosoma cruzi. The experiment in a line: Antitrypanosomal activity against epimastigote forms of Trypanosoma cruzi CL-B5 transfected with Escherichia coli beta-galactosidase gene LacZ at 1 ug/ml after 72 hrs by chlorophenol red-Beta-D-galactopyranoside-based assay. The class given is functional.
Data set [4] relates to Trypanosoma cruzi. The experiment in a line: Antitrypanosomal activity against amastigote forms of Trypanosoma cruzi CL-B5 expressing Escherichia coli LacZ gene infected in NCTC929 fibroblasts at 100 ug/ml after 7 days by chlorophenol red-Beta-D-galactopyranoside-based assay. It is filed as functional.
Data set [5] has as its system Trypanosoma cruzi. Kind of data set: Antitrypanosomal activity against amastigote forms of Trypanosoma cruzi CL-B5 expressing Escherichia coli LacZ gene infected in NCTC929 fibroblasts at 1 ug/ml after 7 days by chlorophenol red-Beta-D-galactopyranoside-based assay. It is filed as functional.
Data set [6] relates to Trypanosoma cruzi. Kind of data set: Antitrypanosomal activity against amastigote forms of Trypanosoma cruzi CL-B5 expressing Escherichia coli LacZ gene infected in NCTC929 fibroblasts at 10 ug/ml after 7 days by chlorophenol red-Beta-D-galactopyranoside-based assay. It is filed as functional.
Data set [7] relates to J774. The experiment in a line: Cytotoxicity against mouse J774 cells assessed as reduction in cell viability at 100 ug/ml after 24 hrs by resazurin-based colorimetric assay. Conditions: j774, 24 h. In general terms: The colour change of resazurin is a common sign of viable cells or microbes.
Data set [8] concerns J774. The experiment in a line: Cytotoxicity against mouse J774 cells assessed as reduction in cell viability at 10 ug/ml after 24 hrs by resazurin-based colorimetric assay. The settings on record: j774, 24 h.
The subject of data set [9] is J774. Kind of data set: Cytotoxicity against mouse J774 cells assessed as reduction in cell viability at 1 ug/ml after 24 hrs by resazurin-based colorimetric assay. The settings on record: j774, 24 h.

Turning to `CN1CC(=O)Nc2cc([N+](=O)[O-])ccc21`, the Activity in the data set with Trypanosoma cruzi [1] turned out to be 34.5%; in the data set with Trypanosoma cruzi [2], 30.1%; with Trypanosoma cruzi [3], 17.8%.

Consider `CC1CS(=O)(=O)CCN1/N=C/c1ccc([N+](=O)[O-])o1` (stereo not drawn) [NIFURTIMOX], for which the Activity in the data set on Trypanosoma cruzi [4] came out at 100%; with Trypanosoma cruzi [1] it was 98.7%; in the data set on Trypanosoma cruzi [2], 90%; with Trypanosoma cruzi [3], 75.5%; with Trypanosoma cruzi [5], 88.14%; in the data set on Trypanosoma cruzi [6] it was 94.44%. Further, the Activity with J774 [7] is given as 25.9%; with J774 [8], 0.6%; with J774 [9], 0%.

For `CN1C(=O)CN(CCCCCl)c2ccc([N+](=O)[O-])cc21`, the Activity was determined as 99% in the data set on Trypanosoma cruzi [1]; 69.1% in the data set with Trypanosoma cruzi [2]; 19.9% in the data set on Trypanosoma cruzi [3]; 39.33% with Trypanosoma cruzi [6]; 96.8% in the data set with J774 [7]; 0% in the data set with J774 [8].

Take `CCOCc1ccccc1CCN1CC(=O)Nc2cc([N+](=O)[O-])ccc21`: the Activity in the data set on Trypanosoma cruzi [1] stood at 100%; in the data set with Trypanosoma cruzi [2] it was 74.4%; in the data set with Trypanosoma cruzi [3] it was 28.1%; in the data set with J774 [7] it was 95.9%; in the data set with J774 [8], 48.5%.

`CN1C(=O)CN(CCc2ccccc2CCl)c2ccc([N+](=O)[O-])cc21`: the Activity was determined as 100% in the data set with Trypanosoma cruzi [4]; 100% with Trypanosoma cruzi [1]; 100% with Trypanosoma cruzi [2]; 65.5% with Trypanosoma cruzi [3]; 35.39% in the data set on Trypanosoma cruzi [5]; 56.21% with Trypanosoma cruzi [6]. Further, the Activity in the data set with J774 [7] is on record as 14.5%; in the data set on J774 [8] it was 0%; in the data set with J774 [9] it was 0%.

Turning to `O=C1CN(CCCCCCl)c2ccc([N+](=O)[O-])cc2N1`, the Activity in the data set on Trypanosoma cruzi [1] worked out at 47.5%; with Trypanosoma cruzi [2] it was 42.9%; in the data set on Trypanosoma cruzi [3], 27.7%; in the data set with J774 [7], 64.5%; with J774 [8], 32.3%; with J774 [9] it was 0%.

Turning to `CN1C(=O)CN(CCCCCCCl)c2ccc([N+](=O)[O-])cc21`, the Activity is reported as 100% with Trypanosoma cruzi [1]; 51.2% in the data set with Trypanosoma cruzi [2]; 25.7% in the data set with Trypanosoma cruzi [3]; 80.7% in the data set on J774 [7]; 63.9% in the data set with J774 [8].

As for `O=C1CN(CCc2ccccc2CCl)c2ccc([N+](=O)[O-])cc2N1`, the Activity in the data set on Trypanosoma cruzi [1] came out at 100%; in the data set on Trypanosoma cruzi [2], 96.2%; with Trypanosoma cruzi [3], 43.8%; with J774 [7], 76.6%; in the data set on J774 [8] it was 75.8%; in the data set with J774 [9], 4.7%.

With `O=C1CN(CCCCCl)c2ccc([N+](=O)[O-])cc2N1`, the Activity with Trypanosoma cruzi [1] came out at 70.5%; with Trypanosoma cruzi [2] it was 40.8%; with Trypanosoma cruzi [3] it was 21%; in the data set with J774 [7] it was 29%; with J774 [8] it was 7.4%; with J774 [9], 0%.

On to `O=C1C[N+]2(CCCCC2)c2ccc([N+](=O)[O-])cc2N1.[Cl-]`, for which the Activity came to 26.2% with Trypanosoma cruzi [1], 34% in the data set with Trypanosoma cruzi [2] and 27.2% in the data set on Trypanosoma cruzi [3].
